The values below come from ChEMBL document CHEMBL5126579, “Design and synthesis of efficient fluororethylene-peptidomimetic inhibitors of dipeptidyl peptidase III (DPP3)” (Bioorg Med Chem, 2022).

pIC50: −log10 of the molar value.

Experiment [1] addresses T1, Dipeptidyl peptidase 3 (Homo sapiens, UniProt Q9NY33).
T1 sequence (Q9NY33 whole entry): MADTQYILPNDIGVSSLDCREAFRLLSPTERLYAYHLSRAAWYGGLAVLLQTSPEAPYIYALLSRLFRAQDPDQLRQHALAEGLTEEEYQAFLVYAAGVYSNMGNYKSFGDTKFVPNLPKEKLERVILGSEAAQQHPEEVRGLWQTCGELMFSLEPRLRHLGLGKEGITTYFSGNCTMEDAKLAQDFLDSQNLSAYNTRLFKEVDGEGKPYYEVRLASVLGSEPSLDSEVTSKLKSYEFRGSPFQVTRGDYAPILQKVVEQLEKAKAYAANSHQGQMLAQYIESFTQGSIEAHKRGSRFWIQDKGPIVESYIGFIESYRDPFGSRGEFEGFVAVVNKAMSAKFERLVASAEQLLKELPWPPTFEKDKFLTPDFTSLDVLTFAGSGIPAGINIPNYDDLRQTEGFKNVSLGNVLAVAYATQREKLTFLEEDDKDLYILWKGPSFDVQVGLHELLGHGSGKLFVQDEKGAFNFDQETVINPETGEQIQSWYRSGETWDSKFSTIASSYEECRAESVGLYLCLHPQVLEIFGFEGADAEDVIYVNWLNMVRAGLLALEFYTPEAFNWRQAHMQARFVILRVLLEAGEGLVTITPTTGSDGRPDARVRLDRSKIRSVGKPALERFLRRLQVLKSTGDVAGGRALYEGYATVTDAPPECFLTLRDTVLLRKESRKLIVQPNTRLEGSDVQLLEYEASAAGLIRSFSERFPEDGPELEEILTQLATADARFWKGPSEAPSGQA
Description: Competitive inhibition of DPP3 (unknown origin) using Arg-Arg-2-naphthylamide as substrate.

Experiment [2] addresses T1, Dipeptidyl peptidase 3. Description: Inhibition of human DPP3 using Arg-Arg-2-naphthylamide as substrate assessed as reduction in release of 2-naphthylamine preincubated for 10 mins followed by substrate addition and measured for 30 mins by fluorescence based analysis.
Experiment [3] addresses T1, Dipeptidyl peptidase 3. Description: Inhibition of DPP3 (unknown origin).

In the case of `CC1C(=O)c2cc(O)c3c(c2C(O)C1O)C(=O)c1cccc(O)c1-3` (stereo not drawn), the pIC50 at Dipeptidyl peptidase 3 [1] is 4.13.

With `CC(C)[C@H](N)C(=O)N[C@H](/C(F)=N/[C@@H](Cc1ccccc1)C(=O)N1CCC[C@H]1C(=O)N[C@@H](Cc1c[nH]c2ccccc12)C(=O)O)C(C)C`, on Dipeptidyl peptidase 3 [2], the pIC50 was 5.34.

`Cc1cc(=O)c2c(cc(O)c3c4c(O)cccc4c(=O)c32)c1=O` gave a pIC50 at Dipeptidyl peptidase 3 [1] of 5.84.

Regarding `CC(C)[C@H](N)C(=O)N[C@H](/C(F)=C/[C@@H](Cc1ccccc1)C(=O)N1CCCC[C@H]1C(=O)N[C@@H](Cc1c[nH]c2ccccc12)C(=O)O)C(C)C`, on Dipeptidyl peptidase 3 [2], the pIC50 was 5.11.

As to `CC(C)[C@H](NC(=O)[C@@H](N)C(C)(C)C)/C(F)=C/[C@@H](Cc1ccccc1)C(=O)N1CCC[C@H]1C(=O)N[C@@H](Cc1c[nH]c2ccccc12)C(=O)O`, the pIC50 at Dipeptidyl peptidase 3 [2] is 4.65.

With `CC(C)[C@H](NC(=O)[C@@H](N)C(C)(C)C)/C(F)=C/[C@@H](Cc1ccccc1)C(=O)N1CCCC[C@H]1C(=O)N[C@@H](Cc1c[nH]c2ccccc12)C(=O)O`, the pIC50 on Dipeptidyl peptidase 3 [2] was 4.68.

Regarding `CC(C)[C@H](N)C(=O)N[C@@H](C(C)C)[C@H](O)N[C@@H](Cc1ccccc1)C(=O)N1CCC[C@H]1C(=O)N[C@@H](Cc1c[nH]c2ccccc12)C(=O)O`, the pIC50 against Dipeptidyl peptidase 3 [3] was 5.07.

As for H-VVFPW-OH, at Dipeptidyl peptidase 3 [3], the pIC50 was 6.89.

The pIC50 is −log10 of the IC50, conventionally taken in molar units.
